Details: 313.15 K, Liquid, Vibrating tube method

FC(C(F)(F)F)C(F)(F)F [1,1,1,2,3,3,3-heptafluoropropane]
Details	mass density [kg/m3]
13017 kPa	1415.6
13123 kPa	1416.2
13155 kPa	1416.3
13192 kPa	1416.5
13220 kPa	1416.6
13252 kPa	1417
13275 kPa	1417.1
13311 kPa	1417.3
13338 kPa	1417.4
13374 kPa	1417.6
13406 kPa	1417.6
13443 kPa	1418
13476 kPa	1418.1
13514 kPa	1418.3
13538 kPa	1418.3
13572 kPa	1418.6
13615 kPa	1418.9
13653 kPa	1419.1
13686 kPa	1419.4
13729 kPa	1419.6
13757 kPa	1419.6
13800 kPa	1419.9
13833 kPa	1420.1
13862 kPa	1420.3
13891 kPa	1420.4
13925 kPa	1420.6
13959 kPa	1420.6
13998 kPa	1420.9
14038 kPa	1421.2
14071 kPa	1421.4
14109 kPa	1421.6
14152 kPa	1421.9
14190 kPa	1422
14230 kPa	1422.4
14386 kPa	1422.9
14416 kPa	1423.1
14459 kPa	1423.5
14490 kPa	1423.7
14534 kPa	1423.8
14559 kPa	1423.9
14599 kPa	1424.1
14628 kPa	1424.3
14673 kPa	1424.6
14708 kPa	1424.9
14737 kPa	1424.9
14767 kPa	1425
14796 kPa	1425.3
14836 kPa	1425.4
14865 kPa	1425.6
14904 kPa	1425.8
14933 kPa	1425.9
14966 kPa	1426.1
14996 kPa	1426.1
15036 kPa	1426.5
15063 kPa	1426.5
15093 kPa	1426.7
15124 kPa	1426.9
15155 kPa	1427
15184 kPa	1427.2
15210 kPa	1427.4
15246 kPa	1427.5
15282 kPa	1427.7
15313 kPa	1428.1
15346 kPa	1427.9
15372 kPa	1428.3
15412 kPa	1428.5
15443 kPa	1428.6
15484 kPa	1428.7
15512 kPa	1429
15540 kPa	1429
15570 kPa	1429.3
15597 kPa	1429.5
15629 kPa	1429.6
15661 kPa	1429.7
15703 kPa	1429.9
15744 kPa	1430
15771 kPa	1430.2
15813 kPa	1430.6
15845 kPa	1430.6
15887 kPa	1430.9
15924 kPa	1431.2
15947 kPa	1431.2
15988 kPa	1431.4
16024 kPa	1431.6
16051 kPa	1431.6
16091 kPa	1431.9
16136 kPa	1432.1
16169 kPa	1432.2
16230 kPa	1432.6
16290 kPa	1432.9
16326 kPa	1433
16358 kPa	1433.3
16395 kPa	1433.5
16436 kPa	1433.6
16468 kPa	1433.7
16504 kPa	1434
16582 kPa	1434.4
16615 kPa	1434.6
16652 kPa	1434.6
16709 kPa	1435
16737 kPa	1434.9
16807 kPa	1435.4
16839 kPa	1435.5
16867 kPa	1435.7
16905 kPa	1436.1
16942 kPa	1436.1
16974 kPa	1436.3
17006 kPa	1436.5
17039 kPa	1436.6
17075 kPa	1436.8
17104 kPa	1436.8
17132 kPa	1437.2
17165 kPa	1437.3
17197 kPa	1437.3
17235 kPa	1437.5
17267 kPa	1437.6
17294 kPa	1437.8
17334 kPa	1438
17360 kPa	1438.1
17392 kPa	1438.3
17427 kPa	1438.5
17459 kPa	1438.7
17496 kPa	1438.9
17519 kPa	1439
17551 kPa	1439.2
17575 kPa	1439.3
17616 kPa	1439.4
17652 kPa	1439.6
17684 kPa	1439.7
17711 kPa	1440
17743 kPa	1440
17775 kPa	1440.1
17811 kPa	1440.3
17839 kPa	1440.4
17877 kPa	1440.6
17906 kPa	1440.8
17943 kPa	1440.9
17971 kPa	1441.1
18008 kPa	1441.2
18041 kPa	1441.4
18077 kPa	1441.6
18110 kPa	1441.7
18143 kPa	1442
18176 kPa	1442.1
18204 kPa	1442.2
18242 kPa	1442.3
18277 kPa	1442.6
18309 kPa	1442.7
18337 kPa	1442.8
18375 kPa	1443
18403 kPa	1443.1
18441 kPa	1443.2
18469 kPa	1443.5
18507 kPa	1443.6
18691 kPa	1444.6
18725 kPa	1444.7
18755 kPa	1444.7
18796 kPa	1444.9
18830 kPa	1445
18875 kPa	1445.3
18905 kPa	1445.6
18955 kPa	1445.7
18985 kPa	1445.8
19031 kPa	1445.9
19066 kPa	1446.1
19107 kPa	1446.4
19137 kPa	1446.6
19178 kPa	1446.8
19218 kPa	1446.9
19263 kPa	1447.2
19293 kPa	1447.3
19333 kPa	1447.5
19378 kPa	1447.6
19412 kPa	1447.8
19441 kPa	1448
19476 kPa	1448.1
19522 kPa	1448.4
19553 kPa	1448.5
19589 kPa	1448.7
19625 kPa	1448.9
19669 kPa	1448.9
19710 kPa	1449.1
19750 kPa	1449.4
19781 kPa	1449.5
19822 kPa	1449.6
19858 kPa	1449.8
19893 kPa	1450
19930 kPa	1450.1
19961 kPa	1450.3
19996 kPa	1450.4
20037 kPa	1450.7
20072 kPa	1450.8
20108 kPa	1450.8
20144 kPa	1451.1
20180 kPa	1451.2
20221 kPa	1451.4
20257 kPa	1451.5
20293 kPa	1451.8
20324 kPa	1451.8
20366 kPa	1452
20397 kPa	1452.3
20433 kPa	1452.4
20464 kPa	1452.6
20500 kPa	1452.8
20530 kPa	1452.8

Source: the NIST ThermoML archive (doi:10.1021/je700260f)
